Holding throughout (type): biochemical
One assay has as its target human stromelysin (Sln) (Homo sapiens, UniProt P08254). Put plainly: In vitro MMP inhibition assay (hydrolysis of fluorogenic MCA peptide substrate), stromelysin. As to the method: The catalytic domain of human stromelysin (Sln) was obtained by expression and purification of a C-terminally truncated prostromelysin-1 from E. coli host BL21 (see Marcy et al. Biochem., 1991, 30, 6476). The subsequent activation of the mature form (Sln) was completed with 2 mM APMA for 1 hour at 37° C., followed by separation using a sizing column.
(§1) Assays were performed in assay buffer (50 mM Tricine pH 7.5, 200 mM sodium chloride, 10 mM calcium chloride, 0.5 mM zinc acetate containing 2% dimethyl sulfoxide (DMSO)) once the substrate and inhibitor were diluted into it. Stock solutions of inhibitors were prepared in 100% DMSO. Stock solutions of the substrate were prepared in 100% DMSO at a concentration of 6 mM.
(§2) The assay method was based on the hydrolysis of MCA-Pro-Leu-Gly-Leu-DPA-Ala-Arg-NH2 (American Peptide Co.) at 37° C. (see Knight, C. G. et al., FEBS, 1992, 296, 263-266). The fluorescence changes were monitored with a Perkin-Elmer LS-50B fluorimeter using an excitation wavelength of 328 nm and an emission wavelength of 393 nm. The substrate concentration used in the assays was 10 μM. The inhibitor was diluted into the assays from a solution in 100% DMSO, and controls substituted an equal volume of DMSO so that the final DMSO concentration from inhibitor and substrate dilution in all assays was 2%. […] Proper determination of steady-state rates of substrate cleavage required assay lengths of 60 minutes to allow for complete equilibration of the enzyme-inhibitor complex.
(§3) The Km for the MCA peptide substrate with the matrix metalloproteinases is quite high and exceeds its solubility under assay conditions. Consequently, the apparent Ki (Ki,app) was determined to describe the strength of inhibition. However, in this case, Ki,app would be essentially equal to Ki since [S]<<Km. For the determination of Ki,app, the concentration of the inhibitor was varied at a constant and low concentration of substrate and the steady-state rates of fluorescence change determined. In most cases absorptive quench due to the presence of ligand was not observed. For slow-binding inhibitors, onset of inhibition curves were collected for at least 45 minutes so that equilibrium was established. Steady-state rates of fluorescence change were obtained by fitting a curve to an equation for a single exponential decay containing a linear phase. The fitted value of the linear phase was taken as the steady-state rate. The steady-state rates were fitted to the Michaelis equation describing competitive inhibition by non-linear methods. Data resulting from tight-binding inhibition was analyzed, and Ki,app determined by fitting the data to the tight-binding equation of Morrison (Biochem. Biophys. Acta, vol. 185, pp. 269-286 (1969)) by non-linear methods.
(§4) All Ki values are in nM units.

For a further assay, the target named is T1, Human matrilysin (Matr) (Homo sapiens, UniProt P09237).
T1 construct: catalytic domain liberated with APMA
T1 sequence (P09237 95-267): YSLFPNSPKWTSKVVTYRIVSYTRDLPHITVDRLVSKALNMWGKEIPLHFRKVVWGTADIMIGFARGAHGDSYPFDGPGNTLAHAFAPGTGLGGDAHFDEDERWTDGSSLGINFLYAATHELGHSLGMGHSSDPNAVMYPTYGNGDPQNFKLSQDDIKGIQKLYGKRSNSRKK
Description: In vitro MMP inhibition assay (hydrolysis of fluorogenic MCA peptide substrate), matrilysin. The following applies: Table 1; Ki,app; MCA peptide substrate 10 μM, 37° C., pH 7.5, 2% DMSO; read-out: Matri Ki. Here is the method:
Human matrilysin (Matr) was expressed in E. coli as a fusion protein with ubiquitin. After purification of the matrilysin/ubiquitin fusion from inclusion bodies, the catalytic domain was liberated by treatment with 2 mM APMA at 37° C. for 2 hours. Final purification was complete using copper chelate chromatography.
as §1, §2, §3, §4

Assay [1] concerns the target T2, human collagenase-1 (HFC) (Homo sapiens, UniProt P03956).
T2 sequence (P03956 100-269 limits assumed): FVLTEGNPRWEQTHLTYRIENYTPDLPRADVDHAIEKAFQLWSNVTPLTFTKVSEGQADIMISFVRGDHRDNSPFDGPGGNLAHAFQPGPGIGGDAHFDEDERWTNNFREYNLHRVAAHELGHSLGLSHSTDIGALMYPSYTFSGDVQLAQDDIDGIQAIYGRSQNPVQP
Description: In vitro MMP inhibition assay (hydrolysis of fluorogenic MCA peptide substrate), fibroblast collagenase-1. The following applies: Table 1; Ki,app; MCA peptide substrate 10 μM, 37° C., pH 7.5, 2% DMSO. Here is the method: The catalytic domain of human collagenase-1 was expressed as a fusion protein with ubiquitin in E. coli (see Gehring, E. R., J Biol. Chem., 1995, 270, 22507). After purification of the fusion protein, the fibroblast collagenase-1 catalytic domain (HFC) was released either by treatment with purified, active stromelysin-1 (1:50 wlw ratio), which generated nearly 100% N-terminal Phe1, or by autoprocessing the concentrated collagenase-1 fusion and then incubating at 37° C. for 1 hour. Final purification was completed using zinc chelate chromatography.
as §1, §2, §3, §4

Assay [2] deals with human progelatinase A (GelA) (Homo sapiens, UniProt P08253). Description: In vitro MMP inhibition assay (hydrolysis of fluorogenic MCA peptide substrate), gelatinase A. Here is the method:
The catalytic and fibronectin-like portion of human progelatinase A (GelA) was expressed as a fusion protein with ubiquitin in E. Coli. Assays were carried out on autocatalytically activated material.
as §1, §2, §3, §4

Assay [3] has as its target T3, human collagenase-3 (Coll3) (Homo sapiens, UniProt P45452).
T3 construct: catalytic domain liberated with APMA
Put plainly: In vitro MMP inhibition assay (hydrolysis of fluorogenic MCA peptide substrate), collagenase-3. The following applies: Table 1; Ki,app; MCA peptide substrate 10 μM, 37° C., pH 7.5, 2% DMSO. As to the method: The propeptide and catalytic domain of human collagenase-3 (Coll3) was expressed in E. coli as an N-terminal fusion protein with ubiquitin. After purification of the fusion from inclusion bodies, the catalytic domain was liberated by treatment with 2 mM APMA at room temperature overnight. Final purification was completed using copper chelate chromatography.
as §1, §2, §3, §4

The mark [4] stands for this setting: Table 1, Ki,app, MCA peptide substrate 10 μM, 37° C., pH 7.5, 2% DMSO, read-out: Sin Ki.
Setting [5] is: Table 1, Ki,app, MCA peptide substrate 10 μM, 37° C., pH 7.5, 2% DMSO, read-out: Gel A.

Where two headings read alike, the source gives them in different places.

human progelatinase A (GelA), sequence (P08253 110-446 limits assumed): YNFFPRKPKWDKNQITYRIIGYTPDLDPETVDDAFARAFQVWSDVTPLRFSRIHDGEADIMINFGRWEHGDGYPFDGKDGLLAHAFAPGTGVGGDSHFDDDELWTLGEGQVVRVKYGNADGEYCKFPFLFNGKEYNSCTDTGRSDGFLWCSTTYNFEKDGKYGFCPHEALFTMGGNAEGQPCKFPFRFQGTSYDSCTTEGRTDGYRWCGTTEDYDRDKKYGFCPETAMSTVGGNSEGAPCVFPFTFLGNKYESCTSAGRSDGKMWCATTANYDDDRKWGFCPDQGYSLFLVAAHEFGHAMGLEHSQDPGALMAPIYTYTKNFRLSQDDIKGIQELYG
human stromelysin (Sln), sequence (P08254 100-272 limits assumed): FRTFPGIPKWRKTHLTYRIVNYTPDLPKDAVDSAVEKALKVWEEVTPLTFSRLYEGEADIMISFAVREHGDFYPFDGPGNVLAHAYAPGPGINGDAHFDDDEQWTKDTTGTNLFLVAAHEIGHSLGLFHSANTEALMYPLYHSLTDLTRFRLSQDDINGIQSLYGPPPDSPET

Turning to `CC(C)(C)C(NS(=O)(=O)c1ccc(Oc2ccc(Cl)cc2)cc1)C(=O)NO` (stereo in doubt) [Example 9m, 2(S)--N-hydroxy-3,3-dimethyl-2-[(4-(4-chlorophenoxy)benzenesulfonyl)amino]butanamide], the Ki at human stromelysin (Sln) (setting [4]) stood at 1 nM; at human stromelysin (Sln) (Table 2, comparative example, read-out: STROMELYSIN Ki), 1 nM; at Human matrilysin (Matr) it was 93 nM; in assay [1] it was 21 nM; in assay [2] (setting [5]), 0.09 nM; in assay [2] (Table 2, comparative example, gelatinase A, read-out: GELATINASE Kj), 0.09 nM. In assay [3], this molecule displayed a Ki of 0.034 nM.
With `CC(C)(C)C(NS(=O)(=O)c1ccc(Oc2ccc(F)cc2)cc1)C(=O)NO` (stereo in doubt) [Example 9l, 2(S)--N-hydroxy-3,3-dimethyl-2-[(4-(4-fluorophenoxy)benzenesulfonyl)-amino]butanamide], the Ki on human stromelysin (Sln) (setting [4]) was 1.8 nM; on Human matrilysin (Matr), 120 nM; in assay [1], 30 nM; in assay [2] (setting [5]) it was 0.109 nM; in assay [3], 0.059 nM.
In the case of `CC(C)(C)[C@H](NS(=O)(=O)c1ccc(Oc2ccccc2)cc1)C(=O)NO` [Example 9k, 2(S)--N-hydroxy-3,3-dimethyl-2-[(4-phenoxybenzenesulfonyl)-amino]butanamide], the Ki at human stromelysin (Sln) (setting [4]) was found to be 4.2 nM; on Human matrilysin (Matr), 376 nM; in assay [1], 53 nM; in assay [2] (setting [5]), 0.091 nM; in assay [3] it was 0.057 nM.
The corresponding values for `CC(C)(C)[C@H](NS(=O)(=O)c1ccc(Oc2ccccn2)cc1)C(=O)NO` [Example 10c] are 71 nM, 2270 nM, 960 nM, 5.1 nM and 4.6 nM.
The like results for `CSC(C)(C)[C@@H](NS(=O)(=O)c1ccc(Oc2ccc(Cl)cc2)cc1)C(=O)NO` [Example 9b, 2(S)--N-hydroxy-3-methyl-3-methylsulfanyl-2-[(4-(4-chlorophenoxy)benzenesulfonyl)amino]butanamide] were, in that order, 1.5 nM, 115 nM, 30 nM, 0.065 nM and 0.042 nM.
The corresponding values for `CC(C)(SCc1ccccc1)[C@@H](NS(=O)(=O)c1ccc(Oc2ccccc2)cc1)C(=O)NO` [Example 9i, 2(S)--N-hydroxy-3-methyl-3-benzylsulfanyl-2-[(4-phenoxybenzenesulfonyl)amino]butanamide] are 1.4 nM, 26 nM, 33 nM, 0.038 nM and 0.16 nM.
Regarding `CC(C)(SCc1ccccn1)[C@@H](NS(=O)(=O)c1ccc(Oc2ccc(Br)cc2)cc1)C(=O)O` [Example 3d, N-[4-(4-Bromophenoxy)benzenesulfonyl]--S--[(pyrid-2-yl)methyl]-D-penicillamine], the Ki is 1500 nM on human stromelysin (Sln) (setting [4]); 75000 nM on Human matrilysin (Matr); 34000 nM in assay [1]; 7 nM in assay [2] (setting [5]); 178 nM in assay [3].
For `CC(C)(SCc1ccccn1)[C@@H](NS(=O)(=O)c1ccc(Oc2ccc(Br)cc2)cc1)C(=O)NO` [Example 9e, 2(S)--N-hydroxy-3-methyl-3-(pyrid-2-yl)methylsulfanyl-2-[(4-(4-bromophenoxy)benzenesulfonyl)amino]butanamide], the Ki at human stromelysin (Sln) (setting [4]) stood at 0.26 nM; at Human matrilysin (Matr), 7.9 nM; in assay [1], 4.1 nM.

For the origin of these results see patent US5985900A, “Metalloproteinase inhibitors, pharmaceutical compositions containing them and their pharmaceutical uses” (Agouron Pharmaceuticals, Inc., priority 1998, dated 1999).
